Assay [1] is described as follows: titration curve of pyruvate optical sensor (concentration gradient pyruvate detection). Format: binding. The conditions noted are these: for change of the ratio of fluorescence intensity at 528 nm after excitation at 420 nm and at 485 nm: pyruvate concentration gradient; for Kd: ratio of fluorescence at 528 nm, excitation 420 nm and 485 nm, read-out: Kd (binding constant). The procedure:
6. Take 100 μl of 1 μM protein solution, incubate at 37° C. for 5 minutes, add pyruvate for titration, and measure the fluorescence intensity of the protein emitted at 528 nm after fluorescence excitation at 485 nm. The fluorescence excitation and emission measurement of the samples were completed by a multifunctional fluorescence microplate reader.

Assay [2] in a line: specificity of purified pyruvate optical sensors. Format: biochemical. The conditions noted are these: purified sensor.
Assay [3] in a line: fluorescence spectra of purified sensor treated with 0 mM and 10 mM pyruvate. The conditions noted are these: 10 minutes. The format is biochemical. On the procedure: 7. Take 100 μl of 1 μM protein solution, incubate at 37° C. for 5 minutes, add pyruvate, and measure the absorption and fluorescence spectra of the protein. The determination of the absorption spectrum and fluorescence spectrum of the sample is completed by a spectrophotometer and a fluorescence spectrophotometer.
Exemplarily, after the purified pyruvate optical sensor PdhR(96-254)-192/194-M194V-cpYFP was treated with 0 mM and 10 mM pyruvate for 10 minutes, respectively, the fluorescence spectrum was detected using a fluorescence spectrophotometer.
Determination of excitation spectra: Excitation spectra were recorded with an excitation range of 350 nm to 500 nm and an emission wavelength of 530 nm, with readings every 5 nm.
Determination of emission spectra: excitation spectra were recorded with an fixed excitation wavelength of 420 nm and 490 nm and an emission range of 505-600 nm, read every 5 nm.

For orientation: Kd means the concentration at which binding is half-saturated. On to “141/143-R191S/R192T: cpYFP at 141/143 of PdhR(96-254), mutations R191S/R192T”, for which, in assay [1], the “change of the ratio of fluorescence intensity at 528 nm after excitation at 420 nm and at 485 nm” value (shortened to “change of the ratio … at 485 nm”) was 3.9 times; the Kd was 164 µM.
The like results for “141/143-S190P/R191H/R192P: cpYFP at 141/143 of PdhR(96-254), mutations S190P/R191H/R192P” were, in that order, 3.2 times and 84 µM.
The matching figures for “141/143-S190R/R191S/R192P: cpYFP at 141/143 of PdhR(96-254), mutations S190R/R191S/R192P”: 3.1 times and 158 µM.
The matching figures for “141/143-S190T/R191Q/R192E: cpYFP at 141/143 of PdhR(96-254), mutations S190T/R191Q/R192E”: 2.7 times and 186 µM.
For the substance “141/143-S 190L/R191V: cpYFP at 141/143 of PdhR(96-254), mutations S190L/R191V”, in assay [1], the “change of the ratio … at 485 nm” value turned out to be 4.2 times; the Kd came out at 185 µM.
On to “141/143: optical sensor with cpYFP inserted at site 141/143 of PdhR(96-254)”, for which, in assay [1], the “change of the ratio … at 485 nm” value amounted to 2.0 times; the dissociation constant (Kd) was determined as 28 µM. Moreover, the specificity entry in assay [2] is “good specificity”.
The matching figures for “192/194-M194V-S190E/R191N/R192D: cpYFP at 192/194 of PdhR(96-254), mutations M194V/S190E/R191N/R192D”: 13.1 times, 1070 µM and “good specificity”.
Consider “192/194-M194V: cpYFP at 192/194 of PdhR(96-254), mutation M194V (family SEQ ID NO: 22; coding sequence SEQ ID NO: 31)”, for which, in assay [1], the “change of the ratio … at 485 nm” value is 9.7 times; the Kd turned out to be 475 µM. Further, in assay [3], the “fluorescence intensity excited at 420 nm relative to 0 mM pyruvate” value was 0.6 times and the “fluorescence intensity excited at 490 nm relative to 0 mM pyruvate” value was determined as 5.8 times. Also, the specificity entry in assay [2] is reported as “good specificity”.
In the case of “192/195: optical sensor with cpYFP inserted at site 192/195 of PdhR(96-254)”, in assay [1], the “change of the ratio … at 485 nm” value turned out to be 8.3 times; the dissociation constant Kd is 19900 µM.
Turning to “PdhR(96-254)-192/194-M194V/S190D/R191Y/R192T-cpYFP: cpYFP at 192/194 of PdhR(96-254), mutations M194V/S190D/R191Y/R192T”, the specificity result in assay [2] is on record as “good specificity”.

Values taken from patent US20230324373A1, “PYRUVIC ACID OPTICAL PROBE, PREPARATION METHOD THEREFOR, AND APPLICATION THEREOF” (East China University of Science and Technology, priority 2020, published 2023).
